We go through one molecule from US6458824B1, “Solid preparation” (Dainippon Pharmaceutical Co., Ltd., priority 1999, dated 2002).

Format in all cases: cell-based
In experiment [1] the target is T1, human β3-adrenergic receptor (Homo sapiens, UniProt P13945).
T1 construct: expressed in transfected cells; host or cells: CHO (clone CHO/pKREX10-36)
The experiment can be described thus: cAMP accumulation in CHO/pKREX10-36 cells highly expressing human β3-adrenergic receptor. On the procedure:
(§1) The cells were peeled off by incubation with phosphate-buffered saline containing 0.5 mM EDTA at 37° C. for 10 minutes after the medium was removed. The CHO/pKREX10-36 cells were collected by centrifugation, and suspended in Hanks' buffer (ICN Biomedicals) containing 1 mM L-ascorbic acid and 1 mM 3-isobutyl-1-methylxanthine at the concentration of about 5×10^5 cells/ml. This suspension (100 μl) and a test compound were mixed in the same buffer (500 μl) and incubated at 37° C. for 30 minutes, followed by boiling for 5 minutes to terminate the reaction. After centrifugation of the reaction mixture, the amount of cAMP in the supernatant was measured by using cAMP EIA System (Amersham).
Background: Changes in cAMP serve as a functional read-out for many G protein-coupled receptors.

For experiment [2], the target named is T2, human β1-adrenergic receptor (Homo sapiens, UniProt P08588).
T2 construct: expressed in transfected cells; host or cells: CHO (clone CHO/pKREX23-30)
The experiment can be described thus: cAMP accumulation in CHO/pKREX23-30 cells highly expressing human β1-adrenergic receptor. On the procedure: as §1
(§2) Similarly, the amount of cAMP was measured in the same manner by using CHO/pKREX21-8 for highly expressing human β2-adrenergic receptor, or by using CHO/pKREX23-30 for highly expressing human β1-adrenergic receptor instead of the CHO/pKREX10-36 for highly expressing human β3-adrenergic receptor.

The target in experiment [3] is T3, human β2-adrenergic receptor (Homo sapiens, UniProt P07550).
T3 construct: expressed in transfected cells; host or cells: CHO (clone CHO/pKREX21-8)
The experiment can be described thus: cAMP accumulation in CHO/pKREX21-8 cells highly expressing human β2-adrenergic receptor. As for the experimental part:
as §1, §2

T1 sequence (P13945 whole entry): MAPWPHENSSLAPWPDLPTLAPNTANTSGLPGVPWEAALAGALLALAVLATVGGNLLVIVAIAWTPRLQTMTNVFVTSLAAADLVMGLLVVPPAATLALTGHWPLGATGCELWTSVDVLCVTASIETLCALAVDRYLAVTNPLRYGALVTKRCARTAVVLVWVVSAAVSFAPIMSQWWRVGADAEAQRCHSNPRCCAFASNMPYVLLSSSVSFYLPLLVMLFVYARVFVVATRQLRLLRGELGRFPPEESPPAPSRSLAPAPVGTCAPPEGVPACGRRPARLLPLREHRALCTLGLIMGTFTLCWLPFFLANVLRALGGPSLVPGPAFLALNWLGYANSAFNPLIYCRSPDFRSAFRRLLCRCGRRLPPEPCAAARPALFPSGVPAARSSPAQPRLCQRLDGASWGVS
T2 sequence (P08588 whole entry): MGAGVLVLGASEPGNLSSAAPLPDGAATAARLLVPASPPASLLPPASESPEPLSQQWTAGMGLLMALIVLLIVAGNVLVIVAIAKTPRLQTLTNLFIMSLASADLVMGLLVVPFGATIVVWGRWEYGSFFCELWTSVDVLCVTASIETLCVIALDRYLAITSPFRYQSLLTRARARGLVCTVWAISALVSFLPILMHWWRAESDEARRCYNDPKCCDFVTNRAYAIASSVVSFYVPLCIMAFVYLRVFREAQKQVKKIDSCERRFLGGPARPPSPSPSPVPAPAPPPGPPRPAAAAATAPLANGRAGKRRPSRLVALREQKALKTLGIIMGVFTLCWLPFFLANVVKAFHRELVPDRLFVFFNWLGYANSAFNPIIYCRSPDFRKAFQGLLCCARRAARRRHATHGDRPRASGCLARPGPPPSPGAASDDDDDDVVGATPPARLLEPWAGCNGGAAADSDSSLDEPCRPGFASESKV
T3 sequence (P07550 whole entry): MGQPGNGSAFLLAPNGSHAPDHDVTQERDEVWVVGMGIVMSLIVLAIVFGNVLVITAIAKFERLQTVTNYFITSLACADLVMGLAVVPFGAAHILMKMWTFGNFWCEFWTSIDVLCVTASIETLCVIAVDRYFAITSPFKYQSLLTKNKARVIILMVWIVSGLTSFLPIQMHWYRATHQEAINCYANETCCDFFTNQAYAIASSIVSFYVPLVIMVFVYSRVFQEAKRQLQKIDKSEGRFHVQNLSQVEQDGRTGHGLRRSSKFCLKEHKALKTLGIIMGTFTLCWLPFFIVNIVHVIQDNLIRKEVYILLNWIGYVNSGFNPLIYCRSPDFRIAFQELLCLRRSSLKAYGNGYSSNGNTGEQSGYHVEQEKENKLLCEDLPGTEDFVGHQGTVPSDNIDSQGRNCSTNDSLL

For the molecule `C[C@H](Cc1c[nH]c2c(OCC(=O)O)cccc12)NC[C@H](O)c1cccc(Cl)c1` [Compound A, [3-[(2R)-[[(2R)-(3-chlorophenyl)-2-hydroxyethyl]amino]propyl]-1H-indol-7-yloxy]acetic acid], the concentration giving a half-maximal response (EC50) (commonly the concentration at which the effect is half-maximal) was determined as 0.27 nM in experiment [1] (cAMP accumulation, CHO/pKREX10-36, 37° C. 30 minutes); 3.5 nM in experiment [2] (cAMP accumulation, CHO/pKREX23-30); 21 nM in experiment [3] (cAMP accumulation, CHO/pKREX21-8). Further, in experiment [1] (conclusion from Table 1), the “stimulating activity of human β3-adrenergic receptor (in words)” value is on record as “potent”. In addition, the Emax in experiment [1] (relative maximal response, 10^-5 M (−)-isoproterenol = 100%, read-out: β3-receptor I.A. (intrinsic activity)) was found to be 110%; in experiment [2] (relative maximal response, 10^-5 M (−)-isoproterenol = 100%, read-out: β1-receptor I.A. (intrinsic activity)), 83%; in experiment [3] (relative maximal response, 10^-5 M (−)-isoproterenol = 100%, read-out: β2-receptor I.A. (intrinsic activity)), 45%. In experiment [2] (conclusion from Table 1), the “stimulating activity of human β1-adrenergic receptor (in words)” value is “quite weak”. The “stimulating activity of human β2-adrenergic receptor (in words)” value in experiment [3] (conclusion from Table 1) was “quite weak”.
